Results from patent publication US11759533B2, “Methods and compositions for modulating gene expression” (Wisconsin Alumni Research Foundation, priority 2017, dated 2023).

Assays:
frataxin (FXN) mRNA = assay: FXN mRNA by RT-PCR (relative to TBP) in FRDA patient cell line GM15850; format: cell-based, human; conditions: GM15850, 1 μM, 24 hours
Method: Cells were maintained in RPMI 1640 supplemented with 2 mM L-glutamine and 15% fetal bovine serum (FBS) at 37° C. in a humidified atmosphere of 5% CO2. Cell density was maintained between 200,000 cells/mL and 1,000,000 cells/mL. Cell growth and morphology were monitored by phase contrast microscopy and cell viability by trypan blue exclusion. To maintain cell density, cells were passaged by centrifuging at 500 g for 3 minutes and resuspending the cells in fresh media. To avoid cross-contamination, cells were handled separately with separate bottles of media. Relevant data were obtained from cell lines passaged between P9 and P12.
To prepare agents for treatment of cells, each agent or agent mixture tested was dissolved in DMSO. […] 500,000 cells ells were seeded at 500,000 cells/mL and treated 24 h with agents in DMSO (0.1-0.2% DMSO final concentration). For the 24 hour treatment, cell media was changed immediately before treatment with agent and agent was added at the zero time point. The media was not changed during the 24 hour treatment time period.
After treatment with the agents or agent mixtures, cells were harvested and total RNA was purified with the RNeasy Mini Kit (Qiagen, Valencia, Calif.), including on-column DNase I treatment (ZYMO Research, Catalog number E1010), according to manufacturer's directions. […]

FXN protein [1] = assay: Immunoblot for FXN protein in GM15851 cells; format: cell-based, human; conditions: GM15851, 24 hours, 1 μM (Agent 4: 0.1, 0.5 or 1 μM)
Method: (§1) In FIG. 3A, “50” refers to GM15850 cells and in FIG. 3B, “51” refers to GM15851 cells. Cells were treated as in Example 4.
(§2) Total cell extracts from cell lines were used for immunoblot analysis. Antibodies to frataxin (abcam ab110328, 1:250 dilution) or alpha-Tubulin (Cell Signaling Technologies 2144, 1:1000 dilution) were used. Signal was detected by chemiluminescence with HRP-conjugated secondary antibodies (Bio-Rad 172-1011, 1:2000 for anti-mouse frataxin and GE NA934V, 1:2000 for anti-rabbit alpha-Tubulin).

FXN-GAA-Luc = assay: Luciferase reporter assay, FXN-GAA-Luc line (~310 GAA repeats); format: cell-based; conditions: 24 hours, 2 μM unless otherwise indicated (Agent 4 at 1 or 2)
Method: This reporter, which includes a ˜310 GAA repeat, recapitulates both the transcriptional repression and the heterochromatin formation at the endogenous FXN locus that are hallmarks of the FRDA disease.
Cells containing FXN-Luc or FXN-GAA-Luc were seeded onto 24-well plates at a confluency of 20%. The next day, media was refreshed and cells were treated 24 hours with the indicated compound at the indicated concentration. Next, cell lysates were harvested and analyzed with the Luciferase Assay System (Promega, Madison, Wis.) per manufacturer's directions on a Synergy H4 Hybrid Reader (BioTek, Winooski, Vt.).

FXN protein [2] = assay: Immunoblot for FXN protein in GM15850 cells; format: cell-based, human; conditions: GM15850, 24 hours, 1 μM (Agent 4: 0.1, 0.5 or 1 μM)
Method: as §1, §2

Row | Structure (SMILES) | increase in FXN mRNA levels (frataxin (FXN) mRNA) | FXN protein (immunoblot) (FXN protein [1]) | luciferase activity (FXN-GAA-Luc) | FXN protein (immunoblot) (FXN protein [2])
1 | Cc1sc2c(c1C)C(c1ccc(Cl)cc1)=N[C@@H](CC(=O)NCCOCCOCCOCCOCCOCCOCCC(=O)NCCCN(C)CCCNC(=O)CCNC(=O)c1cc(NC(=O)c3cc(NC(=O)c4nc(NC(=O)c5cc(NC(=O)CCCNC(=O)c6nc(NC(=O)c7cc(NC(=O)c8cc(NC(=O)c9sccc9Cl)cn8C)cn7C)cn6C)cn5C)cn4C)cn3C)cn1C)c1nnc(C)n1-2 [Control Conjugate 2] | no increase | increase in FXN protein | – | –
2 | Cc1sc2c(c1C)C(c1ccc(Cl)cc1)=N[C@@H](CC(=O)OC(C)(C)C)c1nnc(C)n1-2 [JQ1] | no increase | – | Significant activation was not observed | Neither polyamide alone (3), nor JQ1, nor the unconjugated treatment induced increased production of FXN protein
